# Results from article PMC9658216, “Topical Administration of a Novel Acetylated Tetrapeptide Suppresses Vascular Permeability and Immune Responses and Alleviates Atopic Dermatitis in a Murine Model” (International Journal of Molecular Sciences, 2022).
# Columns and labels:
# filaggrin (FLG) = test: Skin filaggrin (FLG) ELISA; format: in vivo, mouse; conditions: n = 10; for FLG level in dorsal skin: mean ± SD
# Experimental: To induce experimental AD-like skin lesions in mouse, we used cutaneous Biostir-AD for challenging NC/Nga mice, according to the manufacturer’s instructions. After 1 week of acclimation, AD was induced. Briefly, the dorsal part of each mouse was shaved with an electric shaver, and then the remaining hair was removed using a depilatory cream. Twice weekly for three weeks, growing hair was shaved with the electric shaver, followed by application of 150 μL of 4% sodium dodecyl sulfate to the treated area (barrier disruption). Biostir-AD (200 mg/mouse) was applied 3 h after barrier disruption. Fifty mice were divided into five groups of five mice per cage (n = 10 per group): group 1, control (Biostir-AD + vehicle (distilled water only)); group 2, 0.1% tacrolimus (Biostir-AD + Protopic (positive control)); group 3, 0.004% Ac-RLYE (Biostir-AD + 0.004% Ac-RLYE in distilled water); group 4, 0.02% Ac-RLYE (Biostir-AD + 0.02% Ac-RLYE in distilled water); and group 5, 0.1% Ac-RLYE (Biostir-AD + 0.1% Ac-RLYE in distilled water). Ac-RLYE or 0.1% tacrolimus (100 μL/mouse) was applied daily for 4 weeks. The concentration of Ac-RLYE used in the present study was determined based on the results of previous preliminary experiments (unpublished data). The mice were sacrificed after 4 weeks of Ac-RLYE treatment (Figure 2A, on Day 48). The dorsal skin was collected from mice after 4 weeks of Ac-RLYE or tacrolimus treatment and stored at −80 °C until use. The dorsal skin tissues were homogenized in RIPA lysis buffer containing a protease inhibitor and a phosphatase inhibitor and centrifuged at 13,000 rpm for 10 min at 4 °C. The supernatant was collected for a protein assay using a Pierce™ BCA Protein Assay Kit (Thermo Fisher Scientific, Inc., Waltham, MA, USA). The level of FLG in mouse skin tissue was quantified using an ELISA kit (MyBioSource, Inc., San Diego, CA, USA) in accordance with the manufacturer’s instructions.
# NC/Nga mice [1] = test: Dermatitis severity score in HDM (Biostir-AD)-induced AD-like skin lesions; format: in vivo; conditions: topical 100 μL/mouse daily for 4 weeks, Day 48, mean ± SD, n = 10
# Experimental: (§1) To induce experimental AD-like skin lesions in mouse, we used cutaneous Biostir-AD for challenging NC/Nga mice, according to the manufacturer’s instructions. After 1 week of acclimation, AD was induced. Briefly, the dorsal part of each mouse was shaved with an electric shaver, and then the remaining hair was removed using a depilatory cream. Twice weekly for three weeks, growing hair was shaved with the electric shaver, followed by application of 150 μL of 4% sodium dodecyl sulfate to the treated area (barrier disruption). Biostir-AD (200 mg/mouse) was applied 3 h after barrier disruption. Fifty mice were divided into five groups of five mice per cage (n = 10 per group): group 1, control (Biostir-AD + vehicle (distilled water only)); group 2, 0.1% tacrolimus (Biostir-AD + Protopic (positive control)); group 3, 0.004% Ac-RLYE (Biostir-AD + 0.004% Ac-RLYE in distilled water); group 4, 0.02% Ac-RLYE (Biostir-AD + 0.02% Ac-RLYE in distilled water); and group 5, 0.1% Ac-RLYE (Biostir-AD + 0.1% Ac-RLYE in distilled water). Ac-RLYE or 0.1% tacrolimus (100 μL/mouse) was applied daily for 4 weeks. The concentration of Ac-RLYE used in the present study was determined based on the results of previous preliminary experiments (unpublished data). The mice were sacrificed after 4 weeks of Ac-RLYE treatment (Figure 2A, on Day 48). The severity of the dermatitis was measured macroscopically and scored once a week by using a previously established method based on the clinical signs and symptoms of AD, namely, erythema (hemorrhage), edema, excoriation (erosion), and scaling (dryness). The total dermatitis severity score was defined as the sum of the component scores (0, no symptoms; 1, mild; 2, moderate; 3, severe) for each mouse, ranging from 0 to 12.
# NC/Nga mice [2] = test: Histological analysis (H&E) of AD-like skin lesions; format: in vivo, mouse; conditions: n = 10
# Experimental: (§2) To induce experimental AD-like skin lesions in mouse, we used cutaneous Biostir-AD for challenging NC/Nga mice, according to the manufacturer’s instructions. After 1 week of acclimation, AD was induced. Briefly, the dorsal part of each mouse was shaved with an electric shaver, and then the remaining hair was removed using a depilatory cream. Twice weekly for three weeks, growing hair was shaved with the electric shaver, followed by application of 150 μL of 4% sodium dodecyl sulfate to the treated area (barrier disruption). Biostir-AD (200 mg/mouse) was applied 3 h after barrier disruption. […] The concentration of Ac-RLYE used in the present study was determined based on the results of previous preliminary experiments (unpublished data). […]
# (§3) The dorsal skin tissues were isolated, fixed in 10% formalin immediately after excision from the mice, and embedded in paraffin. […] Skin samples were observed and measured with an Olympus BX53 light microscope (Olympus Corporation, Tokyo, Japan). From the histopathological findings, the severity of skin manifestations was assessed on the epidermis (hypertrophy, hyperkeratosis, and infiltration by inflammatory cells) and on the dermis (infiltration by inflammatory cells) and was expressed as the sum of the individual score grades from 0 to 3 (0, no symptoms; 1, mild; 2, moderate; 3, severe), as described previously. […]
# HUVECs = test: Immunofluorescence of ZO-1 and VE-cadherin junctions in VEGF-A-stimulated HUVECs; format: cell-based, human; conditions: HUVECs pre-treated 30 min with 0.15 nM Ac-RLYE, then 10 ng/mL VEGF-A for 1 h; confocal immunofluorescence, Image J; n = 3
# Experimental: Figure 1 Ac-RLYE inhibits VEGF-A-induced junctional integrity loss in HUVECs. Cells were pre-treated for 30 min with Ac-RLYE (0.15 nM) followed by stimulation with 10 ng/mL VEGF-A (V) for 1 h. (A) Confocal images of ZO-1 and VE-cadherin. (B) Quantification of ZO-1 and VE-cadherin at contact sites between endothelial cells (n = 3). Data are represented as mean ± SD values. *** p < 0.001.
# Collagenase type II (Worthington Biochemical Corporation, Lakewood, NJ) was used to isolate human umbilical vein endothelial cells (HUVECs) from umbilical cord veins. The cells were cultured on gelatin-coated plates in Medium 199 supplemented with 20% FBS, 100 U/mL penicillin–streptomycin, 3 ng/mL bFGF, and 5 U/mL heparin. Trypsinization was used to collect the cells (up to passage 7), which were then used for assays.
# HUVECs were grown as a monolayer on 2% gelatin-coated cover glasses and cultured in M199 medium containing 1% FBS. The cells were pretreated with 0.15 nM Ac-RLYE for 30 min and stimulated with 10 ng/mL VEGF-A for 1 h. […] The levels of VE-cadherin and ZO-1 were quantified using Image J software.
# IgE = test: Plasma IgE ELISA; format: in vivo, mouse; conditions: Day 48, topical application, versus vehicle-treated group, n = 10
# Experimental: as §2
# The blood samples were drawn from mice, and the plasma was separated by centrifugation at 10,000× g for 10 min at 4 °C and stored at −80 °C until tested. The plasma level of IgE was measured by ELISA according to the manufacturer’s instructions (Mouse IgE ELISA Kit, Abcam, Cambridge, UK).
# [3] = tested on: Th1, Th2 and Th17 cytokines; test: qRT-PCR of cytokine mRNA in AD-like skin lesions; format: in vivo, mouse; conditions: skin at Day 48, normalized to GAPDH, versus vehicle, n = 10
# Experimental: as §1, with “48).” for “48). The severity of the dermatitis was measured macroscopically and scored once a week by using a previously established method based on the clinical signs and symptoms of AD, namely, erythema (hemorrhage), edema, excoriation (erosion), and scaling (dryness). The total dermatitis severity score was defined as the sum of the component scores (0, no symptoms; 1, mild; 2, moderate; 3, severe) for each mouse, ranging from 0 to 12.”
# Both the ear and dorsal skin of each mouse were excised using a surgical knife, pooled, and used for RNA isolation. Total RNA was prepared using an RNA isolation kit (GeneAll® Hybrid-R™, GeneAll, Korea) following the manufacturer’s instructions. RNA was quantified using a BioTek Take3^TM Multi-Volume plate (Agilent BioTek Instruments, Winooski, VT, USA). An equal amount of total RNA was reverse-transcribed using ReverTra Ace™ qPCR RT Master Mix with gDNA Remover (Toyobo CO., LTD., Osaka, Japan) according to the manufacturer’s instructions. Real time-PCR was performed on a CFX96™ Touch Real-Time PCR System (Bio-Rad, Hercules, CA) using TB Green® Premix Ex Taq™ (Takara, Shiga, Japan). Quantification of the target gene expression was determined by the comparative […] method. The relative expression levels were determined by normalizing expression to glyceraldehyde 3-phosphate dehydrogenase (GAPDH). The level of each target gene was expressed as the relative fold change.
# NC/Nga mice [4] = test: Differential cell counting of blood; format: in vivo, mouse; conditions: differential counting at Day 48; versus vehicle-treated control; n = 10
# Experimental: as §1, with “48).” for “48). The severity of the dermatitis was measured macroscopically and scored once a week by using a previously established method based on the clinical signs and symptoms of AD, namely, erythema (hemorrhage), edema, excoriation (erosion), and scaling (dryness). The total dermatitis severity score was defined as the sum of the component scores (0, no symptoms; 1, mild; 2, moderate; 3, severe) for each mouse, ranging from 0 to 12.”
# Whole blood samples were collected from the mice and used for analysis. […]
# NC/Nga mice [5] = test: Ear thickness in HDM-induced AD model; format: in vivo, mouse; conditions: n = 10
# Experimental: as §1, with “The mice were sacrificed after 4 weeks of Ac-RLYE treatment (Figure 2A, on Day 48). The severity of the dermatitis was measured macroscopically and scored once a week by using a previously established method based on the clinical signs and symptoms of AD, namely, erythema (hemorrhage), edema, excoriation (erosion), and scaling (dryness). The total dermatitis severity score was defined as the sum of the component scores (0, no symptoms; 1, mild; 2, moderate; 3, severe) for each mouse, ranging from 0 to 12.” left out
# Ear thickness was measured on the first day of Ac-RLYE application and then once a week using calipers.
# NC/Nga mice [6] = test: Mast cell infiltration (toluidine blue staining); format: in vivo, mouse; conditions: Day 48, versus vehicle-treated group, n = 10
# Experimental: as §2, §3
Compound,FLG level in dorsal skin (filaggrin (FLG); 0.1% tacrolimus ointment topical daily for 4 weeks) [pg/mL],"Dermatitis score (sum of erythema, edema, excoriation, scaling; 0-12) (NC/Nga mice [1]; 0.1% tacrolimus ointment (Protopic))","Infiltration of inflammatory cells in epidermis and dermis (NC/Nga mice [2]; Day 48, all Ac-RLYE-treated groups versus vehicle-treated HDM group)","Scores of hypertrophy and hyperkeratosis in epidermis (NC/Nga mice [2]; Day 48, versus vehicle-treated HDM group)",VEGF-induced cellular junction disruption (ZO-1 and VE-cadherin at cell-cell contact sites) (HUVECs),Plasma IgE (IgE),Expression of IFN-γ [3],Expression of IL-17A (Th17 cytokine) [3],Expression of Th1 cytokines IL-23 and TNF-α [3],"mRNA levels of Th2-type cytokines IL-4, IL-13, IL-31 and Th2 chemokine CCL17 [3]","Number of leukocytes, neutrophils and eosinophils in blood (NC/Nga mice [4])",FLG level in dorsal skin (filaggrin (FLG); 0.1% Ac-RLYE topical daily for 4 weeks) [pg/mL],"Protein level of FLG versus vehicle-treated AD group (filaggrin (FLG); Ac-RLYE groups 0.004-0.1%, dose-dependent)","Dermatitis score (sum of erythema, edema, excoriation, scaling; 0-12) (NC/Nga mice [1]; 0.004% in distilled water)","Dermatitis score (sum of erythema, edema, excoriation, scaling; 0-12) (NC/Nga mice [1]; 0.02% in distilled water)","Dermatitis score (sum of erythema, edema, excoriation, scaling; 0-12) (NC/Nga mice [1]; 0.1% in distilled water)","Effect on ear thickness compared with tacrolimus (NC/Nga mice [5]; doses above 0.02%, Day 48)","Increase in ear thickness after HDM (NC/Nga mice [5]; topical 0.004-0.1% once daily for 4 weeks, dose-dependent, versus vehicle)",Accumulation of mast cells in AD-like skin lesion (NC/Nga mice [6])
"C=CC[C@@H]1/C=C(\C)C[C@H](C)C[C@H](OC)[C@H]2O[C@@](O)(C(=O)C(=O)N3CCCC[C@H]3C(=O)O[C@H](/C(C)=C/[C@@H]3CC[C@@H](O)[C@H](OC)C3)[C@H](C)[C@@H](O)CC1=O)[C@H](C)C[C@@H]2OC [tacrolimus, reference compound]",1444.8 ± 110.5,4.5 ± 2.4,–,–,–,–,–,–,–,–,–,–,–,–,–,–,–,–,–
N-acetyl-Arg-Leu-Tyr-Glu [Ac-RLYE],–,–,less infiltration,decreased,significantly attenuated,significantly lowered,increased,suppressed,inhibited,remarkably inhibited,dose-dependently lowered,1469.4 ± 105.2,significantly restored,7.4 ± 0.8,5.8 ± 2.3,4.5 ± 2.4,slightly better than that of tacrolimus,significantly attenuated,reduced
